{"source": "patent US20130310416A1", "about": "“Methods and Compositions for Preventing or Treating Age-Related Diseases” (Tartis-Aging, LLC, priority 2006, published 2013)", "key": {"[1]": {"system": "tumor growth", "details": "in vitro and in vivo models; cited from earlier work"}, "[2]": {"system": "WI-38 fibroblasts", "experiment": "doxorubicin exposure, induction of cell senescence", "format": "cell-based, human", "details": "exposure to doxorubicin, FIG. 2", "method": "To illustrate the relationship between the TOR pathway and cell senescence, experiments were performed using WI-38 fibroblasts, a cell line that is commonly used to investigate cell senescence (Sarraj et al., 2001). […] Cell senescence is characterized by a large and flat cell morphology, beta-galactosidase expression in the cytoplasm as a terminal, non-replicative condition."}, "[3]": {"system": "rodents", "details": "rodents (Anisimov et al., 2005); cited from earlier work"}, "[4]": {"details": "rapamycin administration (Kahan, 2004; Rodriguez et al., 2006); cited from earlier work"}}}
{"smiles": "CO[C@H]1C[C@@H]2CC[C@@H](C)[C@@](O)(O2)C(=O)C(=O)N2CCCC[C@H]2C(=O)O[C@H]([C@H](C)C[C@@H]2CC[C@@H](OC(=O)C(C)(CO)CO)[C@H](OC)C2)CC(=O)[C@H](C)/C=C(\\C)[C@@H](O)[C@@H](OC)C(=O)[C@H](C)C[C@H](C)/C=C/C=C/C=C/1C", "note": "[CCI-779, Rapamycin 42-ester with 3-hydroxy-2-(hydroxymethyl)-2-methylpropionic acid]", "values": [{"measurement": "effect on tumor growth", "setting": "[1]", "result": "significant inhibitory effects on tumor growth"}]}
{"smiles": "COc1cccc2c1C(=O)c1c(O)c3c(c(O)c1C2=O)C[C@@](O)(C(=O)CO)C[C@@H]3O[C@H]1C[C@H](N)[C@H](O)[C@H](C)O1", "note": "[doxorubicin]", "values": [{"measurement": "induction of cell senescence", "setting": "[2]", "result": "induces accelerated cell senescence"}]}
{"smiles": "CN(C)C(=N)N=C(N)N", "note": "[metformin]", "values": [{"measurement": "life span", "setting": "[3]", "result": "extend life span"}]}
{"smiles": "[H]/N=C(/N)N/C(=N/[H])NCCc1ccccc1", "note": "[phenformin]", "values": [{"measurement": "life span", "setting": "[3]", "result": "extend life span"}]}
{"smiles": "CO[C@H]1C[C@@H]2CC[C@@H](C)[C@@](O)(O2)C(=O)C(=O)N2CCCC[C@H]2C(=O)O[C@H]([C@H](C)C[C@@H]2CC[C@@H](O)[C@H](OC)C2)CC(=O)[C@H](C)/C=C(\\C)[C@@H](O)[C@@H](OC)C(=O)[C@H](C)C[C@H](C)/C=C/C=C/C=C/1C", "note": "[rapamycin]", "values": [{"measurement": "most common side effect", "setting": "[4]", "result": "increase of blood lipids"}]}
